# According to US20250368628A1, “METHODS AND COMPOUNDS FOR MODULATING INHERITED GENETIC DISEASES” (Design Therapeutics, Inc., priority 2022, published 2025):
# Read-outs that look alike come from different tables or passages of the source.
# Assays:
# [1] = tested on: F35T cells; test: Foci reduction in FECD (CAG10-Cy3 FISH, foci per nucleus); format: cell-based
# How it was run: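 F35T cells, 5000 per well, were treated for 48 h at 37 °C, 5% CO2 in an 8-point dose response. Cells were then fixed in 4% PFA, permeabilized in 70% ethanol and hybridized overnight at 37 °C with a CAG10-Cy3 probe in 30% formamide/2×SSC. After DAPI staining, imaging gave foci per nucleus.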
# [2] = tested on: Myotonic Dystrophy 1 affected patient fibroblasts (Coriel GM04602; 1600 CTG repeats); test: DM1 foci reduction assay (EC50 assay; CAG10-Cy3 FISH, foci per nucleus); format: cell-based
# How it was run: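 GM04602 DM1 patient fibroblasts (1600 CTG repeats) seeded 24 h, then treated 48 h at 37 °C with an 8-point 1:3 dose series from 3 μM. Cells PFA-fixed, ethanol-permeabilized and hybridized overnight with 5 nM CAG10-Cy3 probe, DAPI counterstained. Imaged at 20×, 4 fields per well, as average foci per nucleus.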
# [3] = F35T cells, 48 h treatment, foci per nucleus; read-out: FECD EC50, 48 h
# [4] = Homo sapiens, Fibroblast; DM1 patient fibroblasts, 48 h treatment, foci per nucleus; read-out: DM1 EC50, 48 h
# [5] = F35T cells, foci per nucleus, 48 h treatment; read-out: FECD EC50, 48 h
# [6] = Homo sapiens, Fibroblast; DM1 patient fibroblasts, foci per nucleus, 48 h treatment; read-out: DM1 EC50, 48 h
Compound,"EC50 [1, 3]","EC50 [2, 4]","EC50 [1, 5]","EC50 [2, 6]"
"Cn1cc(NC(=O)c2nc(NC(=O)CCNC(=O)c3cc(NC(=O)c4nccn4C)cn3C)cn2C)cc1C(=O)NCCCC(=O)Nc1cn(C)c(C(=O)NCCC(=O)Nc2cc(C(=O)Nc3cn(C)c(C(=O)NCCC(=O)N4CCC(C#CC#CC5CCNCC5)CC4)n3)n(C)c2)n1 [Compound B-126, 1-Methyl-4-(3-{[1-methyl-4-(1-methylimidazole-2-amido)pyrrol-2-yl]formamido}propanamido)-N-(1-methyl-5-{[3-({1-methyl-2-[(2-{[1-methyl-5-({1-methyl-2-[(3-oxo-3-{4-[4-(piperidin-4-yl)buta-1,3-diyn-1-yl]piperidin-1-yl}propyl)carbamoyl]imidazol-4-yl}carbamoyl)pyrrol-3-yl]carbamoyl}ethyl)carbamoyl]imidazol-4-yl}carbamoyl)propyl]carbamoyl}pyrrol-3-yl)imidazole-2-carboxamide]",< 100 nM,< 100 nM,,
CCCNC(=O)c1nc(NC(=O)c2cc(NC(=O)CCNC(=O)c3nc(NC(=O)CCCNC(=O)c4cc(NC(=O)c5nc(NC(=O)CCNC(=O)c6cc(NC(=O)c7nccn7C)cn6C)cn5C)cn4CCCCCCN)cn3C)cn2C)cn1C [Compound B-234],100 to 500 nM,500 to 1000 nM,,
CCCCn1cc(NC(=O)c2nc(NC(=O)CCNC(=O)c3cc(NC(=O)c4nccn4C)cn3C)cn2C)cc1C(=O)NC[C@H](N)CC(=O)Nc1cn(C)c(C(=O)NCCC(=O)Nc2cc(C(=O)Nc3cn(C)c(C(=O)NCCCCN(C)C)n3)n(C)c2)n1 [Compound B-423],,,> 1000 nM,100 to 500 nM
CCCCCCN1CCC(C#CC#CC2CCN(CCOCCOCCOCCNC(=O)CCNC(=O)c3nc(NC(=O)c4cc(NC(=O)CCNC(=O)c5nc(NC(=O)CCCNC(=O)c6cc(NC(=O)c7nc(NC(=O)CCNC(=O)c8cc(NC(=O)c9nccn9C)cn8C)cn7C)cn6C)cn5C)cn4C)cn3C)CC2)CC1 [Compound B-172],100 to 500 nM,< 100 nM,,
CN(C)C(=NCCCNC(=O)c1nc(NC(=O)c2cc(NC(=O)CCNC(=O)c3nc(NC(=O)CCCNC(=O)c4cc(NC(=O)c5nc(NC(=O)CCNC(=O)c6cc(NC(=O)c7nccn7C)cn6C)cn5C)cn4C)cn3C)cn2C)cn1C)N(C)C [Compound B-206],100 to 500 nM,100 to 500 nM,,
Cn1cc(NC(=O)c2nc(NC(=O)CCNC(=O)c3cc(NC(=O)c4nccn4C)cn3C)cn2C)cc1C(=O)NCCCC(=O)Nc1cn(C)c(C(=O)NCCC(=O)Nc2cc(C(=O)Nc3cn(C)c(C(=O)NCCC(=O)N4CC(c5cnc(CN(CCCC(=O)O)CCCC(=O)O)[nH]5)C4)n3)n(C)c2)n1 [Compound B-371],> 1000 nM,> 1000 nM,,
CCCCn1cc(NC(=O)c2nc(NC(=O)CCNC(=O)c3cc(NC(=O)c4nccn4C)cn3C)cn2C)cc1C(=O)NC[C@H](N)CC(=O)Nc1cn(C)c(C(=O)NCCC(=O)Nc2cc(C(=O)Nc3cn(C)c(C(=O)NCCC(=O)N4CCN(C)CC4)n3)n(C)c2)n1 [Compound B-420],,,500 to 1000 nM,100 to 500 nM
Cn1cc(NC(=O)c2nc(NC(=O)CCNC(=O)c3cc(NC(=O)c4nccn4C)cn3C)cn2C)cc1C(=O)NCCCC(=O)Nc1cn(C)c(C(=O)NCCC(=O)Nc2cc(C(=O)Nc3cn(C)c(C(=O)NCCC(=O)NC(C)(C)C)n3)n(C)c2)n1 [Compound B-47],100 to 500 nM,100 to 500 nM,,
Cn1cc(NC(=O)c2nc(NC(=O)CCNC(=O)c3cc(NC(=O)c4nccn4C)cn3C)cn2C)cc1C(=O)NCCCC(=O)Nc1cn(C)c(C(=O)NCCC(=O)Nc2cc(C(=O)Nc3cn(C)c(C(=O)NCCC(=O)NCCOCCN4CCC(C#CC#CC5CCN(C(=O)OC(C)(C)C)CC5)CC4)n3)n(C)c2)n1 [Compound B-19],100 to 500 nM,< 100 nM,,
COCCOCCOCCOCCN(CCCNC(=O)CCNC(=O)c1nc(NC(=O)c2cc(NC(=O)CCNC(=O)c3nc(NC(=O)CCCNC(=O)c4cc(NC(=O)c5nc(NC(=O)CCNC(=O)c6cc(NC(=O)c7nccn7C)cn6C)cn5C)cn4C)cn3C)cn2C)cn1C)CCOCCOCCOCCOC [Compound B-241],100 to 500 nM,100 to 500 nM,,
Cn1cc(NC(=O)c2nc(NC(=O)CCNC(=O)c3cc(NC(=O)c4nccn4C)cn3C)cn2C)cc1C(=O)NCCCC(=O)Nc1cn(C)c(C(=O)NCCC(=O)Nc2cc(C(=O)Nc3cn(C)c(C(=O)NCCC(=O)NCCOCCOCCOCCOCCN4CCN(C5CCNCC5)CC4)n3)n(C)c2)n1 [Compound B-22],100 to 500 nM,100 to 500 nM,,
CN(CCCNC(=O)c1cccc(C(=O)O)c1)CCCNC(=O)c1cc(NC(=O)CCNC(=O)c2nc(NC(=O)[C@H](N)CCNC(=O)c3cc(NC(=O)c4nc(NC(=O)CCNC(=O)c5cc(NC(=O)c6nccn6C)cn5C)cn4C)cn3C)cn2C)cn1C [Compound B-368],> 1000 nM,> 1000 nM,,
CCCNC(=O)CCNC(=O)c1nc(NC(=O)c2cc(NC(=O)CCNC(=O)c3nc(NC(=O)C[C@@H](N)CNC(=O)c4cc(NC(=O)c5nc(NC(=O)CCNC(=O)c6cc(NC(=O)c7nccn7C)cn6C)cn5C)cn4C)cn3C)cn2C)cn1C [Compound B-415],,,100 to 500 nM,100 to 500 nM
COCCOCCOCCOCCOCCOCCC(=O)NCCCCCCn1cc(NC(=O)c2nc(NC(=O)CCNC(=O)c3cc(NC(=O)c4nccn4C)cn3C)cn2C)cc1C(=O)NCCCC(=O)Nc1cn(C)c(C(=O)NCCC(=O)Nc2cc(C(=O)Nc3cn(C)c(C(=O)NCCC(=O)N4CCC(C#CC#CC5CCNCC5)CC4)n3)n(C)c2)n1 [Compound B-240],< 100 nM,100 to 500 nM,,
C=C(NCCC(=O)Nc1cc(C(=O)Nc2cn(C)c(C(=O)NCCC(=O)NCCC)n2)n(C)c1)c1nc(NC(=O)CCCNC(=O)c2cc(NC(=O)c3nc(NC(=O)CCNC(=O)c4cc(NC(=O)c5nccn5C)cn4C)cn3C)cn2CCCNC(=O)c2ccccc2)cn1C [Compound B-399],< 100 nM,500 to 1000 nM,,
CCCNC(=O)CCNC(=O)c1nc(NC(=O)c2cc(NC(=O)CCNC(=O)c3nc(NC(=O)CCCNC(=O)c4cc(NC(=O)c5nc(NC(=O)CCNC(=O)c6cc(NC(=O)c7nccn7C)cn6C)cn5C)cn4C)cn3C)cn2C)cn1C [Compound B-1],< 100 nM,100 to 500 nM,,
Cn1cc(NC(=O)c2nc(NC(=O)CCNC(=O)c3cc(NC(=O)c4nccn4C)cn3C)cn2C)cc1C(=O)NCCCC(=O)Nc1cn(C)c(C(=O)NCCC(=O)Nc2cc(C(=O)Nc3cn(C)c(C(=O)NCCOCCOCCOCCN4CCC(C#CC#CC5CCNCC5)CC4)n3)n(C)c2)n1 [Compound B-107],100 to 500 nM,100 to 500 nM,,
CN(C)C(=NCCCNC(=O)CCNC(=O)c1nc(NC(=O)c2cc(NC(=O)CCNC(=O)c3nc(NC(=O)CCCNC(=O)c4cc(NC(=O)c5nc(NC(=O)CCNC(=O)c6cc(NC(=O)c7nccn7C)cn6C)cn5C)cn4C)cn3C)cn2C)cn1C)N(C)C [Compound B-72],> 1000 nM,500 to 1000 nM,,
CN(CCCN)CCCNC(=O)c1cc(NC(=O)CCNC(=O)c2nc(NC(=O)CCCNC(=O)c3cc(NC(=O)c4nc(NC(=O)CCNC(=O)c5cc(NC(=O)c6nccn6C)cn5C)cn4C)cn3CCCCCCN=[N+]=[N-])cn2C)cn1C [Compound B-358],> 1000 nM,> 1000 nM,,
CCCCn1cc(NC(=O)c2nc(NC(=O)CCNC(=O)c3cc(NC(=O)c4nccn4C)cn3C)cn2C)cc1C(=O)NCCCC(=O)Nc1cn(C)c(C(=O)NCCC(=O)Nc2cc(C(=O)Nc3cn(C)c(C(=O)NCCC(=O)N4CCCCC4)n3)n(C)c2)n1 [Compound B-433],,,< 100 nM,< 100 nM
CCCNC(=O)CCNC(=O)c1nc(NC(=O)c2cc(NC(=O)CCNC(=O)c3nc(NC(=O)CCCNC(=O)c4cc(NC(=O)c5nc(NC(=O)CCNC(=O)c6cc(NC(=O)c7nccn7C)cn6C)cn5C)cn4CCCCCNC(=O)c4ccccc4)cn3C)cn2C)cn1C [Compound B-397],100 to 500 nM,100 to 500 nM,,
COCCOCCOCCOCCN(CCOCCOCCOCCOC)C(=O)CCCCn1cc(NC(=O)c2nc(NC(=O)CCNC(=O)c3cc(NC(=O)c4nccn4C)cn3C)cn2C)cc1C(=O)NCCCC(=O)Nc1cn(C)c(C(=O)NCCC(=O)Nc2cc(C(=O)Nc3cn(C)c(C(=O)NCCC(=O)N4CCC(C#CC#CC5CCNCC5)CC4)n3)n(C)c2)n1 [Compound B-260],100 to 500 nM,100 to 500 nM,,
Cn1cc(NC(=O)c2nc(NC(=O)CCNC(=O)c3cc(NC(=O)c4nccn4C)cn3C)cn2C)cc1C(=O)NCCCC(=O)Nc1cn(C)c(C(=O)NCCC(=O)Nc2cc(C(=O)Nc3cn(C)c(C(=O)NCCC(=O)NCCOCCOCCOCCN4CCC(C#CC#CC5CCN(C(=O)OC(C)(C)C)CC5)CC4)n3)n(C)c2)n1 [Compound B-17],< 100 nM,< 100 nM,,
Cn1cc(NC(=O)c2nc(NC(=O)CCNC(=O)c3cc(NC(=O)c4nccn4C)cn3C)cn2C)cc1C(=O)NCCCC(=O)Nc1cn(C)c(C(=O)NCCC(=O)Nc2cc(C(=O)Nc3cn(C)c(C(=O)NCCC(=O)N4CCOCC4)n3)n(C)c2)n1 [Compound B-48],100 to 500 nM,100 to 500 nM,,
Cn1cc(NC(=O)c2nc(NC(=O)CCNC(=O)c3cc(NC(=O)c4nccn4C)cn3C)cn2C)cc1C(=O)NCCCC(=O)Nc1cn(C)c(C(=O)NCCC(=O)Nc2cc(C(=O)Nc3cn(C)c(C(=O)NCCC(=O)NC4COP(=O)(O)OC4)n3)n(C)c2)n1 (centres unmarked) [Compound B-392],> 1000 nM,500 to 1000 nM,,
